Test results from PMC12262901, “Natural product-mediated reaction hijacking mechanism validates Plasmodium aspartyl-tRNA synthetase as an antimalarial drug target” (PLOS Pathogens, 2025).
Each block holds one molecule with its values, some of them ahead of it.

Experiments:
[1] = biological target: T1, native length PvAspRS (51-631) (Plasmodium vivax, UniProt A5K9Y2); assay: differential scanning fluorimetry after […] h incubation with substrates; assay type: binding; conditions: AMS (10 or 50 µM) with 10 µM ATP, 20 µM L-Asp, 80 µM E. coli tRNA, 5 mM MgCl2, pH 8, 37 °C; reaction hijacking, covalent Asp-AMS adduct made by the enzyme; value is the Tm, not the shift
T1 construct: gene PVX_081610; residues 51-631, codon-optimised, expressed in E. coli BL21(DE3), N-terminal His-tag removed with TEV protease, homodimer
T1 sequence (A5K9Y2 51-631): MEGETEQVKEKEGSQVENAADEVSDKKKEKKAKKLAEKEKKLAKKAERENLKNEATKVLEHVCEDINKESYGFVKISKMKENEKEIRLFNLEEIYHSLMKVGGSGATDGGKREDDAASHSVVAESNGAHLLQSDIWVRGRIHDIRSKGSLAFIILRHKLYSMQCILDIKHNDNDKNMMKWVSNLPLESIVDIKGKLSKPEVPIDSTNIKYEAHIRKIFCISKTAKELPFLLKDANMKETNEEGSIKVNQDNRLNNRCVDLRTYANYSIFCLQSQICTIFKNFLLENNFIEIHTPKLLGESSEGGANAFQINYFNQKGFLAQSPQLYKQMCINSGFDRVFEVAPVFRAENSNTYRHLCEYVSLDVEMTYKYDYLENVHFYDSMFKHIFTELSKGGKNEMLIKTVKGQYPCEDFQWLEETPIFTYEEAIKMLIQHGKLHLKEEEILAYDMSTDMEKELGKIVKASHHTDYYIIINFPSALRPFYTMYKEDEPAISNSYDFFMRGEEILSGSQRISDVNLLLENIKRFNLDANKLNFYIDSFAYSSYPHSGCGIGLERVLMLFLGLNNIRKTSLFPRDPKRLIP

[2] = biological target: T2, native length PfAspRS (49-626) (Plasmodium falciparum, UniProt Q8I2B1); assay: as above; assay type: binding; conditions: AMS (10 or 50 µM) with 10 µM ATP, 20 µM L-Asp, 80 µM E. coli tRNA, 5 mM MgCl2, pH 8, 37 °C; reaction hijacking, covalent Asp-AMS adduct made by the enzyme; value is the Tm, not the shift
T2 construct: gene PF3D7_0102900; residues 49-626, cytoplasmic, codon-optimised, expressed in E. coli BL21(DE3), N-terminal His-tag removed with TEV protease, homodimer; observed mass 67831 Da
T2 sequence (Q8I2B1 49-626): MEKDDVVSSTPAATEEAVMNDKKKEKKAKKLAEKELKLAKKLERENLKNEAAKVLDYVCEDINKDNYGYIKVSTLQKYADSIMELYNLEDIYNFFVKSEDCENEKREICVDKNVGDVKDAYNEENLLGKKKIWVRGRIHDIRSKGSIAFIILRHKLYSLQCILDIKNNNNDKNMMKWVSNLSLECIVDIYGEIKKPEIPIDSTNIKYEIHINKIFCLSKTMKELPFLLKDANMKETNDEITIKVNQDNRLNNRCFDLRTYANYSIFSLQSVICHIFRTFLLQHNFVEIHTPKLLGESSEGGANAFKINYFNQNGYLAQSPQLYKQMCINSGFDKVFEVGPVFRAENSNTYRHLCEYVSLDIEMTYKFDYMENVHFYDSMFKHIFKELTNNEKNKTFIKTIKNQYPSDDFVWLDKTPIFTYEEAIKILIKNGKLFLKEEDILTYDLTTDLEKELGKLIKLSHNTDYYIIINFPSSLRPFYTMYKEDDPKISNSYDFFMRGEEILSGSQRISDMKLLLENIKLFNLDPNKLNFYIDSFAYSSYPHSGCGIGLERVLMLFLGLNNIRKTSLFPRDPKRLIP

HsAspRS (1-501) [3] = biological target: T3, HsAspRS (1-501) (Homo sapiens, UniProt P14868); assay: Kinase-Glo ATP consumption assay; assay type: biochemical; conditions: 10 µM ATP, 200 µM L-Asp, 160 µM E. coli tRNA, 5 mM MgCl2, pyrophosphatase, pH 8, 37 °C
T3 construct: gene DARS1; full-length 1-501, codon-optimised, expressed in E. coli BL21(DE3), His-tag removed with TEV protease, homodimer
T3 sequence (P14868 1-501): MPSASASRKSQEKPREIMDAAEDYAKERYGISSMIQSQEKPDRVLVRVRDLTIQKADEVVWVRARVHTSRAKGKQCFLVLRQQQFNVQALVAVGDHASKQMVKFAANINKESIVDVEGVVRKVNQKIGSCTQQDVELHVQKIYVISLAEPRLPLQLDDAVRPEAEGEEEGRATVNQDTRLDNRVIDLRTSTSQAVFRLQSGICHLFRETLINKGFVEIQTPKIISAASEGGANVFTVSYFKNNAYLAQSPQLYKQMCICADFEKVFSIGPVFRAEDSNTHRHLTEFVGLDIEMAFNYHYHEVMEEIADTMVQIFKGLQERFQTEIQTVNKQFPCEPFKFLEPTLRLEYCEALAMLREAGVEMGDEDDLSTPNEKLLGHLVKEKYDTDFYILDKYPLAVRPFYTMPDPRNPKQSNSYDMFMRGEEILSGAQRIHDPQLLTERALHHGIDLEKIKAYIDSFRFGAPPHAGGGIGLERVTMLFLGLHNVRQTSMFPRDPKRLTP

[4] = biological target: T1, native length PvAspRS (51-631); assay: Kinase-Glo ATP consumption assay; assay type: biochemical; conditions: 10 µM ATP, 200 µM L-Asp, 80 µM E. coli tRNA, 5 mM MgCl2, pyrophosphatase, pH 8, 37 °C
[5] = biological target: T2, native length PfAspRS (49-626); assay: Kinase-Glo ATP consumption assay; assay type: biochemical; conditions: 10 µM ATP, 200 µM L-Asp, 80 µM E. coli tRNA, 5 mM MgCl2, pyrophosphatase, pH 8, 37 °C
[6] = biological target: T4, truncated PvAspRS (96-631) (Plasmodium vivax, UniProt A5K9Y2); assay: Kinase-Glo ATP consumption assay; assay type: biochemical; conditions: 10 µM ATP, 200 µM L-Asp, 80 µM E. coli tRNA, 5 mM MgCl2, pyrophosphatase, pH 8, 37 °C
T4 construct: gene PVX_081610; residues 96-631, lacks N-terminal extension, pETM-41 vector, expressed in E. coli BL21(DE3), tag removed with TEV protease, homodimer
T4 sequence (A5K9Y2 96-631): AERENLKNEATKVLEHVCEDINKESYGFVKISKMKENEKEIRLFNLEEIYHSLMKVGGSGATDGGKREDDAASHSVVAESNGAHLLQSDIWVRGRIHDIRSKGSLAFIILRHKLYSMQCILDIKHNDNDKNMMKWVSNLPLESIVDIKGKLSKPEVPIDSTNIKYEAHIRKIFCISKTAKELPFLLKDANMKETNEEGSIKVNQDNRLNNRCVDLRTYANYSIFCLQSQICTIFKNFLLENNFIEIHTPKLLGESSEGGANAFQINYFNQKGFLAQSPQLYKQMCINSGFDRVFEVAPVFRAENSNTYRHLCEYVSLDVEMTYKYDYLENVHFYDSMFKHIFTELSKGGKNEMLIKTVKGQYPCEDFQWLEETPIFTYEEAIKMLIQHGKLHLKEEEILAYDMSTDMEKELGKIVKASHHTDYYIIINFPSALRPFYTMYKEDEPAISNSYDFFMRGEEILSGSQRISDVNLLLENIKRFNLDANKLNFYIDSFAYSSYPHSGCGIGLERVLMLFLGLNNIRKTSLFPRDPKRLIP

[7] = biological target: T4, truncated PvAspRS (96-631); assay: X-ray crystal structure, […] Å; assay type: binding; conditions: active site, both chains; crystallised with ATP and L-Asp
[8] = biological target: T4, truncated PvAspRS (96-631); assay: X-ray crystal structure, […] Å; assay type: binding; conditions: active site, both chains; Mg2+ in chain B
[9] = biological target: T2, native length PfAspRS (49-626); assay: differential scanning fluorimetry; assay type: binding; conditions: 2 or 5 µM synthetic Asp-DACM, pH 8, 37 °C, 3 h
[10] = biological target: T4, truncated PvAspRS (96-631); assay: X-ray crystal structure, […] Å; assay type: binding; conditions: active site of catalytic domain, both chains; possible radiation damage at the 2-Cl
HsAspRS (1-501) [11] = biological target: T3, HsAspRS (1-501); assay: differential scanning fluorimetry; assay type: binding; conditions: 2 or 5 µM synthetic Asp-DACM, pH 8, 37 °C, 3 h
[12] = biological target: T1, native length PvAspRS (51-631); assay: differential scanning fluorimetry; assay type: binding; conditions: 2 or 5 µM synthetic Asp-DACM, pH 8, 37 °C, 3 h
[13] = biological target: T1, native length PvAspRS (51-631); assay: differential scanning fluorimetry after […] h incubation with substrates; assay type: binding; conditions: read-out: dTm
[14] = biological target: native length PfAspRS (49-626), Plasmodium falciparum cytoplasmic aspartyl tRNA synthetase (P. falciparum); assay: AUC; sedimentation velocity, c(s) model; PfAspRS at 1, 0.6 and 0.2 mg/mL in 50 mM Tris pH 8.0, 150 mM NaCl, 1 mM TCEP; 200,000 g, 20°C, absorbance at 290 nm
[15] = biological target: native length PfAspRS (49-626), Plasmodium falciparum cytoplasmic aspartyl tRNA synthetase (P. falciparum); assay: SEC; gel filtration after removal of the His-tags; 25 mM or 50 mM Tris-HCl pH 8.0, 150 mM NaCl, 0.5 or 1 mM TCEP
[16] = biological target: native length PvAspRS (51-631), Plasmodium vivax aspartyl tRNA synthetase (P. vivax); assay: as above
[17] = biological target: T5, full-length HsAspRS (1-501), human aspartyl tRNA synthetase (human), P14868; assay: as above; conditions: remark: other sources report otherwise
T5 chain: T3 sequence (P14868 1-501)

Molecule: Nc1ncnc2c1ncn2[C@@H]1O[C@H](COS(N)(=O)=O)[C@@H](O)[C@H]1O [AMS]
Tm [1]: 59.5 °C
Tm [2]: 57.0 °C

Molecule: Nc1ncnc2c1ncn2[C@@H]1O[C@H](COP(=O)(O)OP(=O)(O)OP(=O)(O)O)[C@@H](O)[C@H]1O [ATP]
Kinase-Glo ATP consumption assay (HsAspRS (1-501) [3]): Addition of EctRNA substantively increased the level of ATP consumption
Kinase-Glo ATP consumption assay [4]: Addition of EctRNA substantively increased the level of ATP consumption
Kinase-Glo ATP consumption assay [5]: Addition of EctRNA substantively increased the level of ATP consumption
Kinase-Glo ATP consumption assay [6]: marked increase in ATP consumption in the presence of EctRNA

Molecule: Nc1ncnc2c1ncn2[C@@H]1O[C@H](COP(=O)(O)OC(=O)[C@@H](N)CC(=O)O)[C@@H](O)[C@H]1O [Asp-AMP]
X-ray crystal structure, 2.1 Å [7]: We also solved the structure of PvAspRS with the natural intermediate, Asp-AMP

Molecule: Nc1ncnc2c1ncn2[C@@H]1O[C@H](COS(=O)(=O)NC(=O)[C@@H](N)CC(=O)O)[C@@H](O)[C@H]1O [Asp-AMS, 5′-O-(N-L-aspartate)-sulfamoyl-adenosine]
X-ray crystal structure, 1.8 Å [8]: We also solved the structure of PvAspRS with bound synthetic Asp-AMS

Molecule: Nc1nc(Cl)nc2c1ncn2[C@@H]1O[C@H](COS(=O)(=O)NC(=O)[C@@H](N)CC(=O)O)[C@@H](O)[C@H]1O [Asp-DACM, 2-chloro-5′-O-[N-(L-aspartyl)-sulfamoyl] adenosine]
dTm [9]: synthetic Asp-DACM increased the Tm values of PfAspRS, PvAspRS and HsAspRS
X-ray crystal structure, 2.4 Å [10]: We solved the structure of PvAspRS with bound synthetic Asp-DACM
dTm (HsAspRS (1-501) [11]): synthetic Asp-DACM increased the Tm values of PfAspRS, PvAspRS and HsAspRS
dTm [12]: synthetic Asp-DACM increased the Tm values of PfAspRS, PvAspRS and HsAspRS

Molecule: Nc1nc(Cl)nc2c1ncn2[C@@H]1O[C@H](COS(N)(=O)=O)[C@@H](O)[C@H]1O [DACM, 5′-O-sulfamoyl-2-chloroadenosine]
ΔTm at 10 µM [13]: 19 °C

stoichiometry N [14]: 2
stoichiometry N [15]: 2
Molecule: native length PfAspRS (49-626), Plasmodium falciparum cytoplasmic aspartyl tRNA synthetase (enzyme)

stoichiometry N [16]: 2
Molecule: native length PvAspRS (51-631), Plasmodium vivax aspartyl tRNA synthetase (enzyme)

stoichiometry N [17]: 2
B1: full-length HsAspRS (1-501), human aspartyl tRNA synthetase, P14868-1 1-501 (enzyme)
chain: T3 sequence (P14868 1-501)
